From patent publication US9763925B2, “Antibacterial compounds” (SUMMIT THERAPEUTICS PLC, priority 2008, dated 2017) come the findings set out here.

In brackets after ≈: the same amount, converted by molar mass. Where only a bound is given, the exact number is not on record here.

The subject of assay [1] is MDR Staphylococcus aureus strain (MDR). Nature of the assay: MIC by broth microdilution against MDR Staphylococcus aureus. As to conditions: read-out: MIC (MDR).
Assay [2] has as its system MDR Streptococcus pneumoniae strain (MDR). Kind of assay: MIC by broth microdilution against MDR Streptococcus pneumoniae. As to conditions: read-out: MIC (MDR).
Another assay has as its system Enterococcus faecium. Kind of assay: MIC by broth microdilution against Enterococcus faecium.
Assay [3] has as its system Staphylococcus aureus ATCC29213. Kind of assay: MIC by broth microdilution against Staphylococcus aureus ATCC29213. As to conditions: ATCC29213, read-out: MIC (ATCC29213).
Assay [4] relates to Streptococcus pneumoniae ATCC49619. Kind of assay: MIC by broth microdilution against Streptococcus pneumoniae ATCC49619. As to conditions: ATCC49619, read-out: MIC (ATCC49619).
The test system of assay [5] is Clostridium perfringens clinical isolate (CI). Kind of assay: microbe, parasite or virus in culture. It is filed as cell-based. As to conditions: read-out: MIC (CI).
Assay [6] deals with Clostridium perfringens ATCC13124. Nature of the assay: microbe, parasite or virus in culture. Type of assay: cell-based. As to conditions: ATCC13124, read-out: MIC (ATCC13124).
Assay [7] concerns MDR Enterococcus faecium strain (MDR). Nature of the assay: MIC by broth microdilution against MDR Enterococcus faecium. As to conditions: read-out: MIC (MDR).
Assay [8] relates to Clostridium difficile ATCC700057. Kind of assay: microbe, parasite or virus in culture. Type of assay: cell-based. As to conditions: for MIC: Clostridioides difficile, ATCC700057, read-out: MIC (ATCC700057).
A further assay relates to Bacillus subtilis. It is filed as cell-based.

With `Nc1ccc(-c2nc3cc(-c4ccc5nc(-c6ccc(N)cc6)[nH]c5c4)ccc3[nH]2)cc1` [Compound 1, 4,4′-(1H,3′H-5,5′-bibenzo[d]imidazole-2,2′-diyl)dianiline], the MIC (in assay [1]; in [2]; in the assay with Enterococcus faecium; in [3]; in assay [4]; in assay [5]) was below 1 µg/mL each time. Moreover, the MIC in [6], in assay [7] and in [8] was below 1 µg/mL throughout.
For `Nc1cccc(-c2nc3cc(-c4ccc5[nH]c(-c6cccc(N)c6)nc5c4)ccc3[nH]2)c1` [Compound 2, 3,3′-(1H,1′H-5,5′-bibenzo[d]imidazole-2,2′-diyl)dianiline], the MIC in assay [1] was above 64 µg/mL; in assay [2] it was 1 to 16 µg/mL (≈ 2.4 to 38.4 µM); against Enterococcus faecium it was 1 to 16 µg/mL (≈ 2.4 to 38.4 µM); in [3], 1 to 16 µg/mL (≈ 2.4 to 38.4 µM); in assay [4] it was 1 to 16 µg/mL (≈ 2.4 to 38.4 µM); in assay [5], above 64 µg/mL. Also, the MIC in [6] is above 64 µg/mL; in [7], 1 to 16 µg/mL (≈ 2.4 to 38.4 µM); in assay [8], 1 to 16 µg/mL (≈ 2.4 to 38.4 µM).
Turning to `Oc1ccc(-c2nc3cc(-c4ccc5[nH]c(-c6ccc(O)cc6)nc5c4)ccc3[nH]2)cc1` [Compound 3, 4,4′-(1H,1′H-5,5′-bibenzo[d]imidazole-2,2′-diyl)diphenol], the MIC in [1] is below 1 µg/mL; in assay [2], below 1 µg/mL; with Enterococcus faecium, below 1 µg/mL; in assay [3], below 1 µg/mL; in assay [4], below 1 µg/mL; in assay [5], 1 to 16 µg/mL (≈ 2.39 to 38.2 µM). In addition, the MIC in assay [6] is 1 to 16 µg/mL (≈ 2.39 to 38.2 µM); in assay [7], below 1 µg/mL; in assay [8], below 1 µg/mL.
In the case of `Cn1c(-c2ccc(N)cc2)nc2ccc(-c3ccc4[nH]c(-c5ccc(N)cc5)nc4c3)cc21` [Compound 4, 4,4′-(3′-methyl-1H,3′H-5,5′-bibenzo[d]imidazole-2,2′-diyl)dianiline], the MIC in assay [1] was above 64 µg/mL; in assay [2], 1 to 16 µg/mL (≈ 2.32 to 37.2 µM); against Enterococcus faecium, 1 to 16 µg/mL (≈ 2.32 to 37.2 µM); in assay [3], above 64 µg/mL; in [4], below 1 µg/mL; in assay [5], above 64 µg/mL. Besides, the MIC in [6] is above 64 µg/mL; in assay [7], below 1 µg/mL; in assay [8] it was 17 to 64 µg/mL (≈ 39.5 to 149 µM).
For `Cn1c(-c2ccc(N)cc2)nc2cc(-c3ccc4[nH]c(-c5ccc(N)cc5)nc4c3)ccc21` [Compound 5, 4,4′-(1-methyl-1H,1′H-5,5′-bibenzo[d]imidazole-2,2′-diyl)dianiline], the MIC in [1] was 1 to 16 µg/mL (≈ 2.32 to 37.2 µM); in assay [2] it was below 1 µg/mL; against Enterococcus faecium, below 1 µg/mL; in assay [3] it was 1 to 16 µg/mL (≈ 2.32 to 37.2 µM); in assay [4] it was below 1 µg/mL; in assay [5] it was 1 to 16 µg/mL (≈ 2.32 to 37.2 µM). The MIC was 1 to 16 µg/mL (≈ 2.32 to 37.2 µM) in [6], below 1 µg/mL in [7] and 1 to 16 µg/mL (≈ 2.32 to 37.2 µM) in assay [8].
Regarding `CNc1ccc(-c2nc3cc(-c4ccc5[nH]c(-c6ccc(NC)cc6)nc5c4)ccc3[nH]2)cc1` [Compound 6, 4,4′-(1H,1′H-5,5′-bibenzo[d]imidazole-2,2′-diyl)bis(N-methylaniline)], the MIC is below 1 µg/mL in assay [1]; below 1 µg/mL in assay [2]; below 1 µg/mL in the assay on Enterococcus faecium; below 1 µg/mL in [3]; below 1 µg/mL in [4]; 1 to 16 µg/mL (≈ 2.25 to 36 µM) in [5]. The MIC in assay [6] is 1 to 16 µg/mL (≈ 2.25 to 36 µM); in assay [7] it was below 1 µg/mL; in [8] it was 1 to 16 µg/mL (≈ 2.25 to 36 µM).
For the molecule `COc1ccc(-c2nc3cc(-c4ccc5[nH]c(-c6ccc(OC)cc6)nc5c4)ccc3[nH]2)cc1` [Compound 7, 2,2′-bis(4-methoxyphenyl)-1H,1′H-5,5′-bibenzo[d]imidazole], the MIC (in assay [1]; in assay [2]; against Enterococcus faecium; in assay [3]; in assay [4]; in assay [5]) was below 1 µg/mL in each case. Also, the MIC in assay [6], in assay [7] and in [8] was below 1 µg/mL each time.
As to `Nc1ccc(-c2nc3cc(-c4ccc5[nH]cnc5c4)ccc3[nH]2)cc1` [Compound 8, 4-(1H,1′H-5,5′-bibenzo[d]imidazol-2-yl)aniline], the MIC was in the range of 17 to 64 µg/mL (≈ 52.2 to 197 µM) in assay [1]; 1 to 16 µg/mL (≈ 3.07 to 49.2 µM) in assay [2]; 1 to 16 µg/mL (≈ 3.07 to 49.2 µM) in the assay on Enterococcus faecium; 1 to 16 µg/mL (≈ 3.07 to 49.2 µM) in assay [3]; 1 to 16 µg/mL (≈ 3.07 to 49.2 µM) in assay [4]; 1 to 16 µg/mL (≈ 3.07 to 49.2 µM) in assay [5]. For the same molecule, the MIC in assay [6] lay in the range of 17 to 64 µg/mL (≈ 52.2 to 197 µM); in assay [7], 1 to 16 µg/mL (≈ 3.07 to 49.2 µM); in assay [8], 1 to 16 µg/mL (≈ 3.07 to 49.2 µM).
For `Nc1ccc(-c2nc3cc(-c4ccc5[nH]c(-c6ccccc6)nc5c4)ccc3[nH]2)cc1` [Compound 9, 4-(2′-phenyl-1H,1′H-5,5′-bibenzo[d]imidazol-2-yl)aniline], the MIC is 1 to 16 µg/mL (≈ 2.49 to 39.9 µM) in assay [1]; below 1 µg/mL in assay [2]; below 1 µg/mL against Enterococcus faecium; 1 to 16 µg/mL (≈ 2.49 to 39.9 µM) in assay [3]; below 1 µg/mL in assay [4]; 1 to 16 µg/mL (≈ 2.49 to 39.9 µM) in assay [5]. For the same molecule, the results for the MIC in assay [6], in [7] and in [8] were 17 to 64 µg/mL (≈ 42.3 to 159 µM), below 1 µg/mL and 1 to 16 µg/mL (≈ 2.49 to 39.9 µM), respectively.
In the case of `COc1ccc(-c2nc3ccc(-c4ccc5[nH]c(-c6ccccc6)nc5c4)cc3[nH]2)cc1` [Compound 10, 2′-(4-methoxyphenyl)-2-phenyl-1H,3′H-5,5′-bibenzo[d]imidazole], the MIC (in assay [1]; in [2]; against Enterococcus faecium; in [3]; in assay [4]; in assay [5]) was below 1 µg/mL throughout. Besides, the MIC in assay [6] was 1 to 16 µg/mL (≈ 2.4 to 38.4 µM); in [7] it was below 1 µg/mL; in assay [8], below 1 µg/mL.
Turning to `Nc1ccc(-c2nc3cc(-c4ccc5[nH]c(-c6ccc(N)nc6)nc5c4)ccc3[nH]2)cn1` [Compound 11, 5,5′-(1H,1′H-5,5′-bibenzo[d]imidazole-2,2′-diyl)dipyridin-2-amine], the MIC in [1] is above 64 µg/mL; in assay [2], below 1 µg/mL; against Enterococcus faecium it was 1 to 16 µg/mL (≈ 2.39 to 38.2 µM); in [3], above 64 µg/mL; in assay [4] it was below 1 µg/mL; in assay [5], above 64 µg/mL. For the same molecule, the MIC in [6] is 17 to 64 µg/mL (≈ 40.6 to 153 µM); in assay [7], 1 to 16 µg/mL (≈ 2.39 to 38.2 µM); in [8], below 1 µg/mL.
Consider `c1cc(-c2nc3cc(-c4ccc5[nH]c(-c6ccncc6)nc5c4)ccc3[nH]2)ccn1` [Compound 12, 2,2′-di(pyridin-4-yl)-1H,1′H-5,5′-bibenzo[d]imidazole], for which the MIC is above 64 µg/mL in assay [1]; below 1 µg/mL in assay [2]; above 64 µg/mL against Enterococcus faecium; above 64 µg/mL in [3]; below 1 µg/mL in assay [4]; above 64 µg/mL in assay [5]. The results for the MIC in assay [6], in assay [7] and in assay [8] were above 64 µg/mL, above 64 µg/mL and below 1 µg/mL, respectively. In addition, in assay [8], the “selectivity for Clostridium difficile” value was “highly selective for Clostridium difficile”. Moreover, in the assay on Bacillus subtilis, the “antibacterial activity against Bacillus subtilis” value is reported as “no significant antibacterial activity”.
